Test results: patent US6565872B2, “Polymeric system for drug delivery and solute separation” (priority 1999, dated 2003)

Test: Permeation of solutes through the composite membrane, side-by-side diffusion cell
Assay type: physicochemical
Details: for P(45° C.)/P(20° C.) in 0.0001M KCl: permeability ratio across composite membrane, 45° C. vs 20° C.
Protocol: Permeation of solutes of various molecular sizes through the membrane was determined using a side-by-side diffusion cell. The solution in the receptor cell was pumped to a UV cell with a peristaltic pump. The amount of solute permeated was assayed by a diode array spectrophotometer (HP 8452A). The pH of the medium was adjusted either by addition of sodium hydroxide and hydrochloric acid.

Compound	penetration through the membrane (at the studied temperatures)	P(45° C.)/P(20° C.) in 0.0001M KCl	permeability at 45° C. relative to that at 20° C. (composite membrane, in the presence of CaCl2 (3.33×10^−2 mM, FIG. 7), calculated from slopes)	permeation across the membrane into water at 25° C. (water, 25° C. compared with 40° C. (FIG. 6))	ratio of the permeability at 40° C. to that at 25° C. (composite membrane, DDI water (FIG. 5))
Chymotrypsin	could not penetrate through the membrane	No permeation at both			
Vitamin B12		11.0	about 11 fold	almost negligible permeation	
CC(=O)Nc1ccc(O)cc1 [Acetaminophen]		2.20			about 2.6 times
